The record followed here is US6482982B1, “Halogenated antituberculosis agents” (University of Sciences of Philadelphia, priority 2001, dated 2002).

Molecules are shown by their SMILES. ≈ marks a conversion by molar mass, not a printed value.

Assay [1] relates to M. tuberculosis H37Rv. The experiment in a line: MIC determination by Microplate Alamar Blue Assay (MABA) against H37Rv. Format: cell-based, Mycobacterium tuberculosis. Particulars: Mycobacterium tuberculosis, H37RV; Alamar assay, confirmatory testing alongside drug-resistant strains; read-out: MIC H37Rv. For orientation: Alamar Blue is a resazurin reagent that responds to reducing activity.

Assay [2] relates to isoniazid-resistant Mycobacterium tuberculosis (ATCC 35822). The experiment in a line: microbe, parasite or virus in culture. Particulars: ATCC35822, read-out: MIC INH-R. Format: cell-based.
Assay [3] concerns rifampin-resistant Mycobacterium tuberculosis (ATCC 35838). The experiment in a line: microbe, parasite or virus in culture. Format: cell-based. Conditions: ATCC35838, Alamar assay.
In assay [4] the test system is ethambutol-resistant Mycobacterium tuberculosis. The experiment in a line: microbe, parasite or virus in culture. Type of assay: cell-based. Particulars: read-out: MIC EMB-R.
The test system of assay [5] is kanamycin-resistant Mycobacterium tuberculosis. Kind of assay: microbe, parasite or virus in culture. Format: cell-based. Particulars: read-out: MIC KM-R.
For assay [6], the system named is ciprofloxacin-resistant Mycobacterium tuberculosis. The experiment in a line: microbe, parasite or virus in culture. Type of assay: cell-based. Conditions: read-out: MIC CIP-R.
Assay [7] relates to single-drug resistant M. tuberculosis strains. Format: cell-based, Mycobacterium tuberculosis. Conditions: judged from the ratios in Table 5.

Consider `CC(=O)Nc1ccc(/C=N/NC(N)=S)cc1F` [Compound 16, 4-Acetamido-3-fluorobenzaldehyde thiosemicarbazone], for which the MIC in assay [1] was no more than 0.1 µg/mL; in assay [2], no more than 0.1 µg/mL; in assay [3], no more than 0.1 µg/mL; in assay [4] it was 0.2 µg/mL (≈ 0.787 µM); in assay [5], no more than 0.1 µg/mL; in assay [6], no more than 0.1 µg/mL. Moreover, the “cross-resistance with isoniazid, rifampin, ethambutol, kanamycin or ciprofloxacin” value in assay [7] is “no cross-resistance”.
Regarding `Nc1cc(O)c(C(=O)O)cc1F` [Compound 12, 4-Amino-5-fluorosalicylic Acid], the MIC in assay [1] was no more than 3.13 µg/mL; in assay [2], 25 µg/mL (≈ 146 µM); in assay [3], 6.25 µg/mL (≈ 36.5 µM); in assay [4] it was no more than 3.13 µg/mL; in assay [5], 6.25 µg/mL (≈ 36.5 µM); in assay [6], 6.25 µg/mL (≈ 36.5 µM).
